Values after ≈ are worked out from the molar mass of the structure shown. Residues, ends and D or L forms follow the SMILES beside them.
Experiments:
[1] = test system: Salmonella typhimurium (ATCC 14028); assay: microbe, parasite or virus in culture
Experimental: (§1) The minimum inhibitory concentration (MIC) is defined as the lowest concentration of an antimicrobial ingredient or agent that is bacteriostatic (prevents the visible growth of bacteria).
(§2) Mueller Hinton broth (MHB) comprising 0.01% v/v acetic acid (Sigma Aldrich; St Louis, Mo.) and 0.2% w/v bovine serum albumin (Sigma Aldrich). Equal concentrations of bacteria were plated in wells of standard tissue culture microplates at a density of 0.5×10^8 CFU ml^−1 in MHB per well. Treatments were equivalent volumes (50 μl) of NK-lysin peptides in concentrations of 0 to 150 μg/ml, or no NK-lysin peptides for control wells. The treated plates were incubated at […] and optical densities were determined for each well at 0 minutes, 1, 2 and 3 hours and after an overnight incubation.

[2] = test system: Streptococcus pyogenes (ATCC 19615); assay: microbe, parasite or virus in culture
Experimental: as §1, §2

[3] = test system: Klebsiella oxytoca (ATCC 49131); assay: microbe, parasite or virus in culture
Experimental: as §1, §2

[4] = test system: Streptococcus mutans (isolate); assay: microbe, parasite or virus in culture
Experimental: as §1, §2

[5] = test system: Escherichia coli (ATCC 11775); assay: microbe, parasite or virus in culture
Experimental: as §1, §2

[6] = test system: Pseudomonas aeruginosa (ATCC 9027); assay: microbe, parasite or virus in culture
Experimental: as §1, §2

[7] = test system: Klebsiella pneumoniae (patient isolate); assay: microbe, parasite or virus in culture
Experimental: as §1, §2

[8] = test system: Shigella sonnei (ATCC 25931); assay: microbe, parasite or virus in culture
Experimental: as §1, §2

[9] = test system: S. typhimurium (ATCC 14028); assay: Colony count assays; assay type: cell-based, Salmonella typhimurium; settings: 30 μg/ml
Experimental: Antimicrobial activity of NK-lysin peptides was assayed in cultures of S. typhimurium (ATCC 14028). The bacteria were maintained in tryptic soy broth at 3TC and were grown to the mid-logarithmic phase prior to testing. To determine the activity of NK-lysin peptides, colony count assays were carried out. Bacteria were pelleted and then re-suspended in a 10 mM sodium phosphate buffer pH 7.0 and then diluted to a density of (2×10^6 CFU ml^−1 in MHB. 50 μl of NK-lysin peptide were combined with an equal volume of bacterial culture and incubated at room temperature for 3 hours. A 1 μl sample of each culture was then diluted by 1000 (in 1 ml) and spread over MH agar plates. Colonies were counted after 24 hours at room temperature to determine the bacteria that survived.

[10] = test system: S. typhimurium (ATCC 14028); assay type: cell-based, Salmonella typhimurium; settings: ATCC 14028
Experimental: Screening of NK-lysin peptides was carried out against gram-negative S. typhimurium (ATCC 14028) bacteria. Overnight cultivation of the bacteria was carried out at a temperature of 3TC. A bacterial suspension was created in 10 mM sodium phosphate buffer pH 7.0 having a density of (2×10^6 CFU ml^−1) and plated on Muller-Hinton (MH) agar plates to inoculate. After the plates were dry, antibiotics discs of various concentrations (0 to 150 μg/ml) of antibiotic or NK-lysin peptides were applied to the surface of the inoculated plates. The plates were cultured overnight at 3TC and observed for restriction of growth by determining the diameter of bacterial-free zones surrounding each disc. Ceftazidime antibiotic was employed as a positive control.

[11] = test system: Salmonella typhimurium (ATCC 14028); assay: Growth kinetic activity at 2×MIC; assay type: cell-based
Experimental: (§3) The kinetic killing abilities of NK-lysin peptides were gauged in accordance with the Clinical Laboratory and Standard Institute (CLSI) broth micro-dilution technique presented by Wiegand and Hancock (2008). Mueller Hinton broth comprising 0.01% v/v acetic acid was prepared with 0.2% w/v bovine serum albumin, as above. […] The plate was then incubated at room temperature. […] A distinct triplicate was used to repeat the kinetic potential of NK-lysin peptides thrice.

[12] = test system: Streptococcus mutans (isolate); assay: Growth kinetic activity at 2×MIC; assay type: cell-based; settings: time dependent, FIG. 3B
Experimental: as §3

[13] = test system: gram-positive and gram-negative bacteria; assay: organism not typed
Excerpt: The gram-positive bacterial strains utilized were Streptococcus pyogenes (ATCC 19615) and Streptococcus mutans (isolate obtained from a patient at King Abdul-Aziz hospital). The gram-negative bacterial strains used included Salmonella typhimurium (ATCC 14028), Escherichia coli (ATCC 11775), Pseudomonas aeruginosa (ATCC 9027), Klebsiella oxytoca (ATCC 49131), Shigella sonnei (ATCC 25931), and Klebsiella pneumoniae (patient isolate). Tryptic soy broth (TSB) was used to grow all bacterial strain overnight, after which the bacteria were washed using phosphate-buffered saline (PBS, NaCl 8 g/L, KCl 0.2 g/L, Na2HPO4 1.4 g/L, KH2PO4 0.24 g/L), and then diluted in the same buffer with 1/1000 TSB to an OD600 nm of 0.08-0.1 (1×10^8) colony-forming units (CFU)/ml, which was determined after performing retrospective plate counts on tryptic soy agar. Unless otherwise noted, the experiments in the following examples employed this inoculum preparation apart from when minimum inhibitory and bactericidal concentrations were determined, which employed cells in Muller Hinton broth. […]
Mueller Hinton broth (MHB) comprising 0.01% v/v acetic acid (Sigma Aldrich; St Louis, Mo.) and 0.2% w/v bovine serum albumin (Sigma Aldrich). […] The treated plates were incubated at […] and optical densities were determined for each well at 0 minutes, 1, 2 and 3 hours and after an overnight incubation. […]

[14] = test system: Salmonella typhimurium (ATCC 14028); assay: Leakage of intracellular contents (DNA/RNA release, OD 260 nm); assay type: cell-based; settings: 15 min
Experimental: The protocol of Carson et al. (Antimicrob Agents Chemother. 2002 June; 46(60:1914-20) was used with some changes to perform the assay for determining the loss of DNA/RNA. In short, 50 μl of bacteria was combined with the same volume of NK-lysin peptides at 2×MIC and then incubated at room temperature. Samples were harvested at 15, 30 and 60 minutes, diluted 1:10 and then filtered across 0.22 μm pores (Merck; Tullagreen, Ireland). The measurement of the O.D 260 nm of the filtrates was carried out over NanoDrop plate (Greiner Bio-One GmbH; Frickenhausen, Germany). The results were presented as a ratio to the original OD260 nm. 16S rRNA Amplification Two universal primer sets 341F and 534 R were used to amplify 500 bp of 16s rRNA gene of Salmonella typhimurium. The forward primer had the following sequence: 5′-CCT ACG GGA GGC AGC AG-3′ (SEQ ID NO:04), whereas the reverse primer had the following: 5′-ATT ACC GCG GCT GCT GGC-3′ (SEQ ID NO:05). PCR amplification reactions were carried out in 50 μl of overall volume with a reaction mixture comprising 50 ng template DNA, 10 pmol each primer, 0.25 U Taq DNA polymerase, 10 mM Tris-HCl (pH.9.0), […] dNTPs mix, 30 mM KCl, 1.5 mM MgCl2 in sterile nuclease-free water. […]

[15] = test system: Rotavirus (strain SA-11); assay type: cell-based
Experimental: Rotavirus (strain SA-11) was activated with 10 μg/mL trypsin before propagation on MA-104 cells derived from kidney cells of African […] monkey. MA-104 cells were cultivated in tissue culture flasks in the presence of less than 5% CO2 at 37° C. in Dulbecco's Minimal Essential Medium (DMEM) (Sigma-Aldrich) The DMEM included 1% antibiotic antimycotic solution and 10% heat inactivated fetal bovine serum (A5955, Sigma-Aldrich). Centrifugation of rotavirus was performed at 300×g for 5 mins in order to purify by removal of cell debris. The supernatant was utilized as a stock suspension of virus after filtration through 0.2 μm membrane. The stock virus contained 10^6-10^7 TCID50 per mL and was stored at −80° C. for future use.
In order to activate infectivity, rotavirus was placed in a solution of 10 μg/mL trypsin at 37° C. for 30 min. A 100 μl aliquot of the activated rotavirus sa-11 was mixed with and equal volume of 80 μg/ml NK-lysin peptides for a final rotavirus concentration of 1×10^6 TCID50/ml. The rotavirus and NK-lysin peptide mixture was first incubated for at 37° C. for 1 hour. Serial dilutions of rotavirus and rotavirus+peptide mixtures were prepared. Aliquots 100 μl of the 10-fold serial dilutions were then added to 96-well tissue culture plates comprising monolayers of MA-104 cells at a density of approximately 5.0×10^4 cells per well. Eight wells were used for each sample to make sure sufficient assay precision was achieved. The microplates were incubated for 5 days at 37° C. under 5% CO2 atmosphere. During the 5-day incubation, cells were monitored daily under a microscope to check for a cytopathic effect (CPE). A tissue culture infectious dose (TCID) was the infectious dose/mL of tissue culture equal to 50 percent of wells showing CPE at a specific dilution and was expressed as the TCID50 for that dilution. The highest dilutions in which 50% or higher wells were read as the TCID50.

[16] = 80 μg/ml peptide, Rotavirus (SA-11)
[17] = Streptococcus pyogenes, ATCC19615
[18] = Pseudomonas aeruginosa, ATCC9027

CC[C@H](C)[C@H](NC(=O)[C@H](C)NC(=O)[C@H](CC(=O)O)NC(=O)[C@H](CCC(=O)O)NC(=O)[C@H](CC(=O)O)NC(=O)[C@@H]1CCCN1)C(=O)N[C@@H](CC(N)=O)C(=O)N[C@@H](CC(N)=O)C(=O)N[C@@H](C)C(=O)N[C@@H](CC(C)C)C(=O)N[C@@H](CC(N)=O)C(=O)N[C@@H](CCCCN)C(=O)N[C@H](C(=O)N[C@@H](CS)C(=O)N[C@@H](CO)C(=O)N[C@H](C(=O)NCC(=O)N[C@@H](CCCNC(=N)N)C(=O)N[C@@H](CCCNC(=N)N)C(=O)N[C@@H](CCC(N)=O)C(=O)N[C@@H](CCCNC(=N)N)C(=O)N[C@@H](CO)C(=O)N[C@H](C(=O)N[C@@H](CS)C(=O)N[C@@H](CCCCN)C(=O)N[C@@H](CCC(N)=O)C(=O)N[C@@H](CC(C)C)C(=O)N[C@@H](CC(C)C)C(=O)N[C@@H](CCCCN)C(=O)N[C@@H](CCCCN)C(=O)O)[C@@H](C)CC)[C@@H](C)O)C(C)C [Chicken NK-lysin] (H-PDEDAINNALNKVCSTGRRQRSICKQLLKK-OH; N-terminus and C-terminus assumed)
MBC ([1]; S.typhimrium ATCC 14028): 30 ± 0.10 µg/mL (≈ 8.82 µM)
MIC ([1]; S.typhimrium ATCC 14028): 15 ± 0.098 µg/mL (≈ 4.41 µM)
MBC ([2]; ATCC 19615): 25 ± 0.010 µg/mL (≈ 7.35 µM)
MIC ([2]; ATCC 19615): 15 ± 0.00 µg/mL (≈ 4.41 µM)
MBC ([3]; ATCC 49131): 25 ± 0.10 µg/mL (≈ 7.35 µM)
MIC ([3]; ATCC 49131): 15 ± 0.015 µg/mL (≈ 4.41 µM)
MBC ([4]; isolate): 15 ± 0.00 µg/mL (≈ 4.41 µM)
MIC ([4]; isolate): 15 ± 0.00 µg/mL (≈ 4.41 µM)
MBC ([5]; ATCC 11775): 25 ± 0.010 µg/mL (≈ 7.35 µM)
MIC ([5]; ATCC 11775): 15 ± 0.012 µg/mL (≈ 4.41 µM)
MBC ([6]; ATCC 9027): 25 ± 0.013 µg/mL (≈ 7.35 µM)
MIC ([6]; ATCC 9027): 15 ± 0.012 µg/mL (≈ 4.41 µM)
MBC ([7]; patient isolate): 25 ± 0.010 µg/mL (≈ 7.35 µM)
MIC ([7]; patient isolate): 15 ± 0.030 µg/mL (≈ 4.41 µM)
MIC ([8]; Sh. sonnei ATCC 25931): 15 ± 0.033 µg/mL (≈ 4.41 µM)
decrease of colony number [9]: approximately 10 fold
clear zone diameter [10]: 23 mm
growth inhibition ([11]; 2×MIC, after 4 hr of incubation): Complete inhibition
lethality ([11]; 1 hr after treatment): high lethality
kinetic activity compared between peptides [12]: more potent activity than bovine or human NK-lysin peptides
time to nearly complete killing ([13]; in vitro, some bacterial strains): ≤ 3 h
release of DNA/RNA (OD 260 nm), words [14]: higher activity
Log10TCID50/ml [15, 16]: 5.61
TCID50/ml [15, 16]: 4.11 × 10^5 TCID50/ml
% reduction ([15]; 80 μg/ml peptide, versus initial titre): 79%
inhibition of infection / infectivity ([15]; Rotavirus (strain SA-11)): 80%

NC[C@H]1O[C@H](O[C@H]2[C@H](O)[C@@H](O[C@H]3O[C@H](CO)[C@@H](O)[C@H](N)[C@H]3O)[C@H](N)C[C@@H]2N)[C@H](O)[C@@H](O)[C@@H]1O [Kanamycin, kanamycin, reference compound]
MBC ([1]; Salmonella enterica): 62.5 µg/mL (≈ 129 µM)
MIC ([1]; Salmonella enterica): 62.5 µg/mL (≈ 129 µM)
MIC ([2]; St. pyogenes ATCC 19615): 62.5 ± 0.00 µg/mL (≈ 129 µM)
MBC [2, 17]: 62.5 µg/mL (≈ 129 µM)
MIC [2, 17]: 62.5 µg/mL (≈ 129 µM)
MIC ([3]; K. oxytoca ATCC 49131): 31.25 ± 0.00 µg/mL (≈ 64.5 µM)
MBC ([3]; Klebsiella oxytoca, ATCC49131): 31.2 µg/mL (≈ 64.5 µM)
MIC ([3]; Klebsiella oxytoca, ATCC49131): 31.2 µg/mL (≈ 64.5 µM)
MIC ([4]; St. mutans (isolate)): 62.5 ± 0.023 µg/mL (≈ 129 µM)
MBC ([4]; Streptococcus mutans): 62.5 ± 0.23 µg/mL (≈ 129 µM)
MIC ([4]; Streptococcus mutans): 62.5 µg/mL (≈ 129 µM)
MBC ([5]; Escherichia coli, ATCC11775): 15.6 µg/mL (≈ 32.2 µM)
MIC ([5]; Escherichia coli, ATCC11775): 15.62 ± 0.011 µg/mL (≈ 32.2 µM)
MIC ([6]; P.aeruginosa ATCC 9027): 62.5 ± 0.00 µg/mL (≈ 129 µM)
MBC [6, 18]: 62.5 µg/mL (≈ 129 µM)
MIC [6, 18]: 62.5 µg/mL (≈ 129 µM)
MIC ([7]; K.Pneumonia (isolate)): 31.25 ± 0.00 µg/mL (≈ 64.5 µM)
MBC ([7]; Klebsiella pneumoniae): 31.2 µg/mL (≈ 64.5 µM)
MIC ([7]; Klebsiella pneumoniae): 31.2 µg/mL (≈ 64.5 µM)
MIC ([8]; Sh. sonnei ATCC 25931): 7.81 ± 0.026 µg/mL (≈ 16.1 µM)
MBC ([8]; Shigella sonnei, ATCC25931): 7.81 ± 0.026 µg/mL (≈ 16.1 µM)
MIC ([8]; Shigella sonnei, ATCC25931, Sh. sonnei ATCC 25931): 7.8 µg/mL (≈ 16.1 µM)
MIC [13]: 7.8 to 62.5 µg/mL (≈ 16.1 to 129 µM)
